We go through 2 compounds from US6432969B1, “N-(substituted glycyl)-2 cyanopyrrolidines, pharmaceutical compositions containing them and their use in inhibiting dipeptidyl peptidase-IV” (Novartis AG, priority 2000, dated 2002).

The target of series [1] is T1, DPP-IV activity in human plasma (Homo sapiens, UniProt P27487).
T1 construct: from tissue; host or cells: human plasma
Put plainly: Human plasma DPP-IV assay. The format is biochemical. The settings on record: substrate H-Gly-Pro-AMC. On the procedure: (§1) Briefly, 5 μl of plasma are added to 96-well flat-bottom micortiter plates (Falcon), followed by the addition of 5 μl of 80 mM MgCl2 in incubation buffer (25 mMHEPES, 140 mM NaCl, 1% RIA-grade BSA, pH 7.8). After a 60 min. incubation at room temperature, the reaction is initiated by the addition of 10 μl of incubation buffer containing 0.1 mM substrate (H-Glycine-Proline-AMC; AMC is 7-amino 4-methylcoumarin). The plates are covered with aluminum foil (or kept in the dark) and incubated at room temperature for 20 min. […] A fluorescence-concentration curve of free AMC is generated using 0-50 μM solutions of AMC in assay buffer. The curve generated is linear and is used for interpolation of substrate consumption (catalytic activity in nmoles substrate cleaved/min). As with the previous assay, the potency of the test compounds as DPP-IV inhibitors, expressed as IC50, is calculated from 8-point, dose-response curves using a 4 parameter logistic function.

The target of series [2] is T2, DPP-IV activity from human colonic carcinoma cell (Caco-2) extracts (Homo sapiens, UniProt P27487).
T2 construct: Cell extract is prepared from cells solubilized in 10 mM Tris HCl; host or cells: Caco-2, differentiated to induce DPP-IV expression
T2 sequence (P27487 whole entry): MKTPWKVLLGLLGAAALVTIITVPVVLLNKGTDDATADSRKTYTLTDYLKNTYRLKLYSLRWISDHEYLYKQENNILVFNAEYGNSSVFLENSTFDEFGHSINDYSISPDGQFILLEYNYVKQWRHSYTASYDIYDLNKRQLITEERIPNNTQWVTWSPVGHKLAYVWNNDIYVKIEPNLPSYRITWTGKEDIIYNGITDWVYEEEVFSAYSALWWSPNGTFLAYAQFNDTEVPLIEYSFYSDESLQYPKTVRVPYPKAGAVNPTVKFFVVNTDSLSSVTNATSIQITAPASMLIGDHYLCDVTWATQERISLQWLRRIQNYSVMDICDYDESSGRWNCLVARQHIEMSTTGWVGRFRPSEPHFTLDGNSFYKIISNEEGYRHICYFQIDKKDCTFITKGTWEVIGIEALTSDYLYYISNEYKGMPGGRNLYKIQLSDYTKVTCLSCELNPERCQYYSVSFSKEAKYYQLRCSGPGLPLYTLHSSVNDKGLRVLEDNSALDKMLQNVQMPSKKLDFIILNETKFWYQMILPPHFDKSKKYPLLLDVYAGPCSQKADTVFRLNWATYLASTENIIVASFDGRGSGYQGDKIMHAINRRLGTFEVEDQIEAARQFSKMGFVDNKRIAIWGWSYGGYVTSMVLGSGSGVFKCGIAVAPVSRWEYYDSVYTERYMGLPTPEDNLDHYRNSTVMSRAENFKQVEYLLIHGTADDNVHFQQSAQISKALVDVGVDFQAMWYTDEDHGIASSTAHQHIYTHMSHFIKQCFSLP
The series can be described thus: Caco-2 DPP-IV Assay. The format is biochemical. As to conditions: Caco-2 cell extract, substrate H-Ala-Pro-pNA, 8-point dose-response. As to the method: The human colonic carcinoma cell line Caco-2 was obtained from the American Type Culture Collection (ATCC HTB 37). Differentiation of the cells to induce DPP-IV expression was accomplished as described by Reisher, et al. in an article entitled “Increased expression of intestinal cell line Caco-2” in Proc. Natl. Acad. Sci., Vol. 90, pgs. […] Cell extract is prepared from cells solubilized in 10 mM Tris HCl, 0.15 M NaCl, 0.04 t.i.u.aprotinin, 0.5% nonidet-P40, pH 8.0, which is centrifuged at 35,000 g for 30 min. at 4° C. to remove cell debris. The assay is conducted by adding 20 μg solubilized Caco-2 protein, diluted to a final volume of 125 μl in assay buffer (25 mM Tris HCl pH 7.4, 140 mM NaCl, 10 mM KCl, 1% bovine serum albumin) to microtiter plate wells. After a 60 min. incubation at room temperature, the reaction is initiated by adding 25 μl of 1 mM substrate (H-Alanine-Proline-pNA; pNA is p-nitroaniline). […] A standard curve of free p-nitroaniline is generated using 0-500 μM solutions of free pNA in assay buffer. The curve generated is linear and is used for interpolation of substrate consumption (catalytic activity in nmoles substrate cleaved/min).
The potency of the test compounds as DPP-IV inhibitors, expressed as IC50, is calculated from 8-point, dose-response curves using a 4-parameter logistic function.

In series [3] the target is T3, DPP-IV activity in rat plasma (Rattus norvegicus, UniProt P14740).
T3 construct: from tissue; host or cells: rat plasma
T3 sequence (P14740 38-767 limits assumed): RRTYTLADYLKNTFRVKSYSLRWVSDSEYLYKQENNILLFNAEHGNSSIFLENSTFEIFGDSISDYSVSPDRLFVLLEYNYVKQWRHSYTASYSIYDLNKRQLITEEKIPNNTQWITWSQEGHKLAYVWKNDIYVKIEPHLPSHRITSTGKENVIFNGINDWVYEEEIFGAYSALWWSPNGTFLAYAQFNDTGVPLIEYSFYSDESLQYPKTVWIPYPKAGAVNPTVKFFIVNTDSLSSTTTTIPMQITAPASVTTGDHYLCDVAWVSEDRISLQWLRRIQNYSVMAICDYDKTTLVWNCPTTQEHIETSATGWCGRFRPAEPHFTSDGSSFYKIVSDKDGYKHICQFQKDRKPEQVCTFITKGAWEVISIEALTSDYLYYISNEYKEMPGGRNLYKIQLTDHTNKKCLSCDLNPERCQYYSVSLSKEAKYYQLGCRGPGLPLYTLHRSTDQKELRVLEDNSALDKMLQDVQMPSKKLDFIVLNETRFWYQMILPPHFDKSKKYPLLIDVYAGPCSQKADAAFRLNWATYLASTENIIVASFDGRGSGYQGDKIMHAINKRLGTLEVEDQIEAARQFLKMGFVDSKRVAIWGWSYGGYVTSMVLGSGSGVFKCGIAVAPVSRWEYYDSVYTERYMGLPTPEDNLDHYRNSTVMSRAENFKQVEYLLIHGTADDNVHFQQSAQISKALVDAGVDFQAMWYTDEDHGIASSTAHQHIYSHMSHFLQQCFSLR
The series can be described thus: Rat plasma DPP-IV assay. The settings on record: substrate H-Gly-Pro-AMC. In kind it is biochemical. As to the method:
as §1

T1 sequence (P27487 39-766 limits assumed): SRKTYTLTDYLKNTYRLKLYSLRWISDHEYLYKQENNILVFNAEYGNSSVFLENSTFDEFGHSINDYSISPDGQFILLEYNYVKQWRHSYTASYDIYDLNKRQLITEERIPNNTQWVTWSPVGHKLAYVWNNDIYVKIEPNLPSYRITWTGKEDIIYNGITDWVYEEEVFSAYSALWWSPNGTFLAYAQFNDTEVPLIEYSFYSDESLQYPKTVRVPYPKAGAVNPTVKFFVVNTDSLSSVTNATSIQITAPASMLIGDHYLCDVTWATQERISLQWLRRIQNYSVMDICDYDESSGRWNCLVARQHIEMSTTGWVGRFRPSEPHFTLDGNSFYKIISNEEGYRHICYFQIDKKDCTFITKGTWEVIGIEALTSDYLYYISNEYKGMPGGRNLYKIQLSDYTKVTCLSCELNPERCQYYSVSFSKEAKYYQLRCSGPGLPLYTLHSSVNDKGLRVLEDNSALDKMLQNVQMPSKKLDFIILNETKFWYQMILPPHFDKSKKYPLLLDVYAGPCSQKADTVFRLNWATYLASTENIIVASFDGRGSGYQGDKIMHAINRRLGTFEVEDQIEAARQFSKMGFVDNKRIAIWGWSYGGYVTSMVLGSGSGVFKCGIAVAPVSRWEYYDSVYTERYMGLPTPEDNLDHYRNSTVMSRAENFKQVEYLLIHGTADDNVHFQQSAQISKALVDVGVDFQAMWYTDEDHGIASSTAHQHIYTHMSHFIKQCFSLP

For `CC(C)(CNc1cc(C(F)(F)F)ccn1)NCC(=O)N1CCC[C@H]1C#N` [Ex. 2E, 1-[[[2-[(4-trifluoromethyl-2-pyridinyl)amino]-1,1-dimethylethyl]amino]acetyl]-2-cyano-(S)-pyrrolidine], the melting point (as a rule, the temperature, or range, at which the solid turns liquid) was 38 to 40 °C. Besides, the IC50 (in general, the midpoint of a concentration-inhibition curve) in series [1] was found to be 27 nM. In series [2], this compound had a concentration for half-maximal inhibition (IC50) of 27 nM. It took 19 nM to reach half-maximal inhibition in series [3] (IC50).
With `N#C[C@@H]1CCCN1C(=O)CNC1CCN(c2nc(-c3ccccc3)cs2)CC1` [Ex. 2KK, 1-[[[1-(4-phenyl-2-thiazolyl)-4-piperidinyl]amino]acetyl]-2-cyano-(S)-pyrrolidine], the melting point lay in the range of 141 to 143 °C. The same compound registered an IC50 in series [1] of 38 nM. Further, the IC50 in series [2] stood at 28 nM. The same compound gave a concentration for half-maximal inhibition (IC50) in series [3] of 12 nM.
